# Reference: patent publication US20240350597A1, “PROTEASE INHIBITORS” (University College Dublin, priority 2023, published 2024)
# Tests used:
# [1] = tested on: SARS-CoV-2 Spike pseudoparticles; assay type: cell-based; conditions: 12.5 μM, A549-ACE2-TMPRSS2 cells
# [2] = tested on: pancreatic elastase; experiment: Protease inhibition assay, elastase; assay type: biochemical; conditions: 10 min preincubation, A1AT compared with B3-TMP
# Description: (§1) Proteases were incubated with a 1:5 molar excess of serpin and residual activity was determined by cleavage of fluorescent substrates. All assays were carried out at room temperature in 96-well plates in a total volume of 100 μL. Residual proteolytic activity was measured using a SpectraMax M3 Microplate Reader (Molecular Devices, Inc), using the appropriate buffer and synthetic fluorogenic peptide substrate: Cathepsin L, Z-FR-AMC (10 μM), 50 mM Na-Acetate, 100 mM NaCl, 1 mM EDTA, pH 5.5; Chymotrypsin, Z-AAPF-AMC (5 μM), PBS, 1 mg/ml BSA; Elastase, Met-O-Suc-AAPV-AMC (10 μM), 50 mM Tris, 120 mM NaCl, pH 8.0, 1 mg/ml BSA; Furin, Boc-RVRR-AMC (50 μM) 20 mM Tris, 1 mM CaCl2), 0.5% Brij-35, pH 9; TMPRSS2, Boc-QAR-AMC (80 μM), PBS; Trypsin, Z-FR-AMC (10 μM), 50 mM Tris, 0.2 mM DTT, 1 mg/ml BSA. The excitation and emission wavelengths used were 380 nm and 460 nm respectively. All assays were performed in triplicate.
# (§2) As an indication of target protease selectivity, both serpins were tested with mammalian trypsin, chymotrypsin and elastase, in addition to TMPRSS2. A short preincubation time of 10 minutes prior to addition of fluorogenic substrate was used and residual activity determined.
# [3] = tested on: mammalian trypsin; experiment: Protease inhibition assay, trypsin; assay type: biochemical; conditions: 10 min preincubation, A1AT compared with B3-TMP
# Description: as §1, §2
# [4] = molecular target: T1, TMPRSS2 (Homo sapiens, UniProt O15393); experiment: Kinetic analysis of TMPRSS2 inhibition under pseudo first-order conditions; assay type: biochemical; conditions: room temperature, TMPRSS2 0.1 μM
# T1 construct: purchased Cusabio Technology
# T1 sequence (O15393 whole entry): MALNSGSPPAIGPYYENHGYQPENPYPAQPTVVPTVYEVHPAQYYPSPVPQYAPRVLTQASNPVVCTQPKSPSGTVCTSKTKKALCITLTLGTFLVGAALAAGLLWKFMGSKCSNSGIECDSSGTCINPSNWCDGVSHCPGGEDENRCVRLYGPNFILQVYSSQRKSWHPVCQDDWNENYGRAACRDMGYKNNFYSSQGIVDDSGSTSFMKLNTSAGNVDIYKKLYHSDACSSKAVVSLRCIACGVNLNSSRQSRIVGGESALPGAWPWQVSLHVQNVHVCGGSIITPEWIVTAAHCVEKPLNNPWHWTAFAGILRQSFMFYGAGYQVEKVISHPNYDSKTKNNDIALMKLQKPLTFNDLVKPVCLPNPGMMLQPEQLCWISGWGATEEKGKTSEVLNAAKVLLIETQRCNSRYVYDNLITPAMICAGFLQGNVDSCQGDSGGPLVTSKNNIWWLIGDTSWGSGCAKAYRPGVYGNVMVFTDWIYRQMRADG
# Description: For kinetic analysis of TMPRSS2 inhibition, second order inhibition rate constants were determined under pseudo first-order conditions using a range of serpin concentrations, and with TMPRSS2 buffer and substrate detailed above. Reactions were performed at room temperature and residual activity was determined at intervals over a 10 min incubation with a molar excess of serpin over protease. Concentration ranges were 0.12 to 0.44 μM for B3-TMP and 1.0 to 4 μM for A1AT. The apparent first order rate constant kobs for each concentration was calculated from the slope of the natural log of residual activity over time (−kobs). These values were plotted against inhibitor concentration and linear regression analysis of this plot gave the second order inhibition rate constant k2, with standard error determined.
# [5] = molecular target: T1, TMPRSS2; assay type: biochemical; conditions: 5:1 serpin:protease ratio, 10 min incubation, substrate Boc-QAR-AMC
# [6] = tested on: chymotrypsin; experiment: Protease inhibition assay, chymotrypsin; assay type: biochemical; conditions: 10 min preincubation, A1AT compared with B3-TMP
# Description: as §1, §2
substance,measurement,setting,value
alpha-1-antitrypsin [A1AT],inhibition of pseudoparticle entry,[1],40%
same,pancreatic elastase inhibition (in words),[2],more effective inhibitor
same,trypsin inhibition (in words),[3],more effective inhibitor
same,second order inhibition rate constant k2 of TMPRSS2 inhibition,[4],(4.8±0.55)×10^2 M^−1 s^−1
same,inhibition of TMPRSS2,[5],15%
same,chymotrypsin inhibition (in words),[6],more effective inhibitor
